Laboratory results: ChEMBL document CHEMBL4715896, “A styrylpyrone dimer isolated from Aniba heringeri causes apoptosis in MDA-MB-231 triple-negative breast cancer cells” (Bioorg Med Chem, 2021)
The source made the active and inactive calls. No cut-off for these calls is given here.

Columns and labels:
PC-3 = experiment: Growth inhibition of human PC3 cells incubated for 48 hrs by sulforhodamine B assay; format: functional
786-0 = experiment: Growth inhibition of human 786-0 cells incubated for 48 hrs by sulforhodamine B assay; format: functional
HT-29 = experiment: Growth inhibition of human HT-29 cells incubated for 48 hrs by sulforhodamine B assay; format: functional
MCF7 = experiment: Growth inhibition of human MCF7 cells incubated for 48 hrs by sulforhodamine B assay; format: functional
MDA-MB-231 [1] = experiment: Growth inhibition of human MDA-MB-231 cells incubated for 48 hrs by sulforhodamine B assay; format: functional
[2] = Cytotoxicity against mouse NIH/3T3 cells assessed as growth inhibition after 48 hrs by SRB assay; format: cell-based, NIH3T3
[3] = Selectivity index, ratio of GI50 for cytotoxicity against mouse NIH/3T3 cells to GI50 for human PC3 cells; format: toxicity, cell-based; details: NIH/3T3 cells and PC3 cells, read-out: RatioGI50
[4] = Selectivity index, ratio of GI50 for cytotoxicity against mouse NIH/3T3 cells to GI50 for human 786-0 cells
[5] = Selectivity index, ratio of GI50 for cytotoxicity against mouse NIH/3T3 cells to GI50 for human HT-29 cells; format: toxicity, cell-based; details: NIH/3T3 cells and HT-29 cells, read-out: RatioGI50
[6] = Selectivity index, ratio of GI50 for cytotoxicity against mouse NIH/3T3 cells to GI50 for human MCF7 cells; format: toxicity, cell-based; details: NIH/3T3 cells and MCF7 cells, read-out: RatioGI50
[7] = Selectivity index, ratio of GI50 for cytotoxicity against mouse NIH/3T3 cells to GI50 for human MDA-MB-231 cells; format: toxicity, cell-based; details: NIH/3T3 cells and MDA-MB-231 cells, read-out: RatioGI50
MDA-MB-231 [8] = experiment: Induction of apoptosis in human MDA-MB-231 cells assessed as viable cells at 63 uM after 48 hrs by Annexin-V/7-AAD staining based flow cytometry relative to control; format: functional; details: read-out: Activity
MDA-MB-231 [9] = experiment: Induction of apoptosis in human MDA-MB-231 cells assessed as apoptotic cells at 63 uM after 48 hrs by Annexin-V/7-AAD staining based flow cytometry relative to control; format: functional
MDA-MB-231 [10] = experiment: Induction of apoptosis in human MDA-MB-231 cells assessed as late apoptotic cells at 63 uM after 48 hrs by Annexin-V/7-AAD staining based flow cytometry relative to control; format: functional
MDA-MB-231 [11] = experiment: Induction of apoptosis in human MDA-MB-231 cells assessed as necrotic cells at 63 uM after 48 hrs by Annexin-V/7-AAD staining based flow cytometry relative to control; format: functional
MDA-MB-231 [12] = experiment: Induction of apoptosis in human MDA-MB-231 cells assessed as viable cells at 63 uM after 72 hrs by Annexin-V/7-AAD staining based flow cytometry relative to control; format: functional; details: read-out: Activity
MDA-MB-231 [13] = experiment: Induction of apoptosis in human MDA-MB-231 cells assessed as apoptotic cells at 63 uM after 72 hrs by Annexin-V/7-AAD staining based flow cytometry relative to control; format: functional
MDA-MB-231 [14] = experiment: Induction of apoptosis in human MDA-MB-231 cells assessed as late apoptotic cells at 63 uM after 72 hrs by Annexin-V/7-AAD staining based flow cytometry relative to control; format: functional
MDA-MB-231 [15] = experiment: Induction of apoptosis in human MDA-MB-231 cells assessed as necrotic cells at 63 uM after 72 hrs by Annexin-V/7-AAD staining based flow cytometry relative to control; format: functional
MDA-MB-231 [16] = experiment: Induction of apoptosis in human MDA-MB-231 cells assessed as formation of apoptotic bodies after 48 hrs by Hoechst 33342 staining based analysis relative to control; format: functional
MDA-MB-231 [17] = experiment: Induction of apoptosis in human MDA-MB-231 cells assessed as formation of apoptotic bodies after 72 hrs by Hoechst 33342 staining based analysis relative to control; format: functional
MDA-MB-231 [18] = experiment: Induction of morphological changes in human MDA-MB-231 cells assessed as proliferation arrest at 4.4 uM after 48 hrs by acridine orange/ethidium bromide double staining-based fluorescence/phase contrast microscopic analysis; format: functional, cell-based
MDA-MB-231 [19] = experiment: Induction of morphological changes in human MDA-MB-231 cells assessed as loss of elongated spindle morphology at 4.4 uM after 48 hrs by acridine orange/ethidium bromide double staining-based fluorescence/phase contrast microscopic analysis; format: functional, cell-based
MDA-MB-231 [20] = experiment: Induction of morphological changes in human MDA-MB-231 cells assessed as reduction in cell contact at 4.4 uM after 48 hrs by acridine orange/ethidium bromide double staining-based fluorescence/phase contrast microscopic analysis; format: functional
MDA-MB-231 [21] = experiment: Induction of morphological changes in human MDA-MB-231 cells assessed as reduction in cytoplasmic extension at 4.4 uM after 48 hrs by acridine orange/ethidium bromide double staining-based fluorescence/phase contrast microscopic analysis; format: functional, cell-based
MDA-MB-231 [22] = experiment: Induction of morphological changes in human MDA-MB-231 cells assessed as formation of coarse clusters at 4.4 uM after 72 hrs by acridine orange/ethidium bromide double staining-based fluorescence/phase contrast microscopic analysis; format: functional, cell-based
MDA-MB-231 [23] = experiment: Induction of morphological changes in human MDA-MB-231 cells assessed as formation of atypical cell clusters at 4.4 uM after 72 hrs by acridine orange/ethidium bromide double staining-based fluorescence/phase contrast microscopic analysis; format: functional
MDA-MB-231 [24] = experiment: Induction of morphological changes in human MDA-MB-231 cells assessed as reduction in number of cells at 63 uM after 48 hrs by acridine orange/ethidium bromide double staining-based fluorescence/phase contrast microscopic analysis; format: functional, cell-based
MDA-MB-231 [25] = experiment: Induction of morphological changes in human MDA-MB-231 cells assessed as reduction in number of cells at 63 uM after 72 hrs by acridine orange/ethidium bromide double staining-based fluorescence/phase contrast microscopic analysis; format: functional, cell-based
MDA-MB-231 [26] = experiment: Induction of morphological changes in human MDA-MB-231 cells assessed as cells with irregular shape at 63 uM after 72 hrs by acridine orange/ethidium bromide double staining-based fluorescence/phase contrast microscopic analysis; format: functional, cell-based
MDA-MB-231 [27] = experiment: Induction of morphological changes in human MDA-MB-231 cells assessed as loss of cell cell interaction at 63 uM after 72 hrs by acridine orange/ethidium bromide double staining-based fluorescence/phase contrast microscopic analysis; format: functional
MDA-MB-231 [28] = experiment: Induction of morphological changes in human MDA-MB-231 cells assessed as loss of cell adhesion at 63 uM after 72 hrs by acridine orange/ethidium bromide double staining-based fluorescence/phase contrast microscopic analysis; format: functional
MDA-MB-231 [29] = experiment: Induction of apoptosis in human MDA-MB-231 cells assessed as chromatin condensation at 63 uM after 48 hrs by acridine orange/ethidium bromide double staining-based fluorescence/phase contrast microscopic analysis; format: functional, cell-based
MDA-MB-231 [30] = experiment: Induction of apoptosis in human MDA-MB-231 cells assessed as nuclei fragmentation at 63 uM after 48 hrs by acridine orange/ethidium bromide double staining-based fluorescence/phase contrast microscopic analysis; format: functional, cell-based
MDA-MB-231 [31] = experiment: Induction of apoptosis in human MDA-MB-231 cells assessed as appearance of apoptotic bodies at 63 uM after 48 hrs by acridine orange/ethidium bromide double staining-based fluorescence/phase contrast microscopic analysis; format: functional, cell-based
MDA-MB-231 [32] = experiment: Induction of apoptosis in human MDA-MB-231 cells assessed as chromatin condensation at 63 uM after 72 hrs by acridine orange/ethidium bromide double staining-based fluorescence/phase contrast microscopic analysis; format: functional, cell-based
MDA-MB-231 [33] = experiment: Induction of apoptosis in human MDA-MB-231 cells assessed as nuclei fragmentation at 63 uM after 72 hrs by acridine orange/ethidium bromide double staining-based fluorescence/phase contrast microscopic analysis; format: functional, cell-based
MDA-MB-231 [34] = experiment: Induction of apoptosis in human MDA-MB-231 cells assessed as appearance of apoptotic bodies at 63 uM after 72 hrs by acridine orange/ethidium bromide double staining-based fluorescence/phase contrast microscopic analysis; format: functional, cell-based
MDA-MB-231 [35] = experiment: Induction of apoptosis in human MDA-MB-231 cells assessed as activation of caspase-3 at 63 uM after 48 hrs by flow cytometry; format: functional, cell-based
MDA-MB-231 [36] = experiment: Induction of apoptosis in human MDA-MB-231 cells assessed as activation of caspase-3 at 63 uM after 72 hrs by flow cytometry relative to untreated control; format: functional
MDA-MB-231 [37] = experiment: Induction of apoptosis in human MDA-MB-231 cells assessed as increase in Bax gene expression at 63 uM after 48 hrs by RT-qPCR analysis; format: functional, cell-based
MDA-MB-231 [38] = experiment: Induction of apoptosis in human MDA-MB-231 cells assessed as reduction in bcl2 gene expression at 63 uM after 48 hrs by RT-qPCR analysis; format: functional, cell-based
MDA-MB-231 [39] = experiment: Induction of apoptosis in human MDA-MB-231 cells assessed as effect on BIRC5 mRNA expression at 63 uM after 48 hrs by RT-qPCR analysis; format: functional, cell-based
MDA-MB-231 [40] = experiment: Induction of apoptosis in human MDA-MB-231 cells assessed as increase in Bax/Bcl2 gene expression at 63 uM after 48 hrs by RT-qPCR analysis; format: functional, cell-based

O=C1C=C[C@@H]2[C@H](c3ccccc3)[C@@H](c3cccc(=O)o3)[C@]2(/C=C/c2ccccc2)O1
GI50 (PC-3): 69.5 µM | GI50 (786-0): 61.7 µM | GI50 (HT-29): 69.7 µM | GI50 (MCF7): 50.2 µM | GI50 (MDA-MB-231 [1]): 4.42 µM | GI50 at 48 h [2]: 158 µM | selectivity ratio [3]: 2.27 | RatioGI50 [4]: 2.55 | selectivity ratio [5]: 2.26 | selectivity ratio at 48 h [6]: 3.14 | selectivity ratio at 48 h [7]: 35.7 | viability at 63 µM (MDA-MB-231 [8]): 28.4% | Activity (MDA-MB-231 [9]): 17% | Activity (MDA-MB-231 [10]): 13% | Activity (MDA-MB-231 [11]): 2% | viability at 63 µM (MDA-MB-231 [12]): 50% | Activity (MDA-MB-231 [13]): 11% | Activity (MDA-MB-231 [14]): 37% | Activity (MDA-MB-231 [15]): 5% | Activity (MDA-MB-231 [16]): 56% | Activity (MDA-MB-231 [17]): 33% | Activity (MDA-MB-231 [18]): Active | Activity (MDA-MB-231 [19]): Active | Activity (MDA-MB-231 [20]): Active | Activity (MDA-MB-231 [21]): Active | Activity (MDA-MB-231 [22]): Active | Activity (MDA-MB-231 [23]): Active | Activity (MDA-MB-231 [24]): Active | Activity (MDA-MB-231 [25]): Active | Activity (MDA-MB-231 [26]): Active | Activity (MDA-MB-231 [27]): Active | Activity (MDA-MB-231 [28]): Active | Activity (MDA-MB-231 [29]): Active | Activity (MDA-MB-231 [30]): Active | Activity (MDA-MB-231 [31]): Active | Activity (MDA-MB-231 [32]): Active | Activity (MDA-MB-231 [33]): Active | Activity (MDA-MB-231 [34]): Active | Activity (MDA-MB-231 [35]): Active | fold change (FC) (MDA-MB-231 [36]): 4 | Activity (MDA-MB-231 [37]): Active | Activity (MDA-MB-231 [38]): inactive | Activity (MDA-MB-231 [39]): Active | Activity (MDA-MB-231 [40]): Active

O=c1cccc(/C=C/c2ccccc2)o1
GI50 (PC-3): 90.4 µM | GI50 (786-0): 176 µM | GI50 (HT-29): 145 µM | GI50 (MCF7): 107 µM | GI50 (MDA-MB-231 [1]): 98 µM | GI50 at 48 h [2]: 1270 µM | selectivity ratio [3]: 14 | RatioGI50 [4]: 7.24 | selectivity ratio [5]: 8.73 | selectivity ratio at 48 h [6]: 11.8 | selectivity ratio at 48 h [7]: 12.9

COc1cccc2c1C(=O)c1c(O)c3c(c(O)c1C2=O)C[C@@](O)(C(=O)CO)C[C@@H]3O[C@H]1C[C@H](N)[C@H](O)[C@H](C)O1 [DOXORUBICIN]
GI50 (PC-3): 0.24 µM | GI50 (786-0): 0.16 µM | GI50 (HT-29): 0.28 µM | GI50 (MCF7): 0.25 µM | GI50 (MDA-MB-231 [1]): 1.84 µM | GI50 at 48 h [2]: 0.28 µM

O=c1cccc([C@H]2[C@H](c3ccccc3)[C@H](c3cccc(=O)o3)[C@H]2c2ccccc2)o1
GI50 (PC-3): 96.3 µM | GI50 (786-0): 567 µM | GI50 (HT-29): 88.7 µM | GI50 (MCF7): 12.2 µM | GI50 (MDA-MB-231 [1]): 34.2 µM | GI50 at 48 h [2]: 503 µM | selectivity ratio [3]: 5.22 | RatioGI50 [4]: 0.88 | selectivity ratio [5]: 5.67 | selectivity ratio at 48 h [6]: 41.1 | selectivity ratio at 48 h [7]: 14.7
